Where a SMILES comes first, the peptide text is derived from it. [ ]: non-standard residue; d: D form. The star is where a group is joined. X1 = CCN(CC)c1ccc2c(c1)Oc1cc(N(CC)CC)ccc1C2c1ccccc1C(=O)*; Ac6c = NC1(C(=O)O)CCCCC1; Ac5c = NC1(C(=O)O)CCCC1
What was measured:
[1] = Partition coefficient, shake-flask method, 1-octanol/phosphate buffer; format: physicochemical; conditions: shake-flask 1-octanol/phosphate buffer (NaH2PO4/Na2HPO4), pH 7.41 ± 0.01, 25 °C, system stirred 12 h, absorbance and emission read-out, standard additions
From the text: The effectiveness of biomolecules is mainly due to specific structural and physicochemical properties. In principle, the properties of peptides/proteins are very diverse and directly related to their bioactivity. […] With the manifestation of hydrophilic properties, the occurrence of a hydration process is possible; swelling, increasing their mass and volume, while it is possible to partially limit the solubility of the molecule, in which case the peptide molecule becomes more unstable. At the isoelectric point, peptides have the least ability to bind water, i.e., to hydrate; the hydration shell around the peptide molecules breaks down so that they combine to form, for example, aggregates. When the pH of the medium changes, the peptide macromolecule is charged, and its hydration capacity changes. […] Due to the obtained values, the studied compounds can be arranged in the following sequence from hydrophilic to hydrophobic (lipophilic): Rh-S > Rh-S5 > Rh-S6. This corresponds to the data from the morphology of the compound, where an analogous order of increasing porosity/hydrophilicity was found (Figure 3). It can be seen that the replacement of natural proline with unnatural steric restricted amino acids such as 1-aminocyclopentanecarboxylic acid (Ac5c) and 1-aminocyclohexanecarboxylic acid (Ac6c) (neuropeptides Rh-S5 and Rh-S6) leads to an increase in lipophilicity, which would assist passage through the brain barrier and increase the efficiency of the molecule. […]
The partition coefficients of the spinorphin-rhodamine derivatives were determined in a 1-octanol/phosphate buffer system (NaH2PO4/Na2HPO4, pH 7.41 ± 0.01). […] After separation, the absorbance and emission of the solutions of the two phases were measured and the amount of dissolved analyte was determined by the method of standard additions. […] The partition coefficient was calculated by the following equation: P = C^oct/buf/C^buf/oct, where C^oct/buf and C^buf/oct are the molar concentrations of the solute in the mutually saturated phases of 1-octanol and buffer.

[2] = Acid-base constants (pKa) and isoelectric point (pI) by fluorimetry, confirmed by UV-Vis; format: physicochemical; conditions: for pKa2 / pKa1: fluorimetric, inflection of I/pH curve, confirmed by UV-Vis, average values from repeatable results; for pKa2: pH 1 to 12, rhodamine part (λex 560 nm); for pKa1: pH 1 to 12, tryptophan emission (λex 275 nm); for pI: isoelectric point calculated from the protolytic constants
Protocol: When studying the fluorescence properties, the emission spectra were recorded upon excitation at two wavelengths: λ^ex = 275 nm where tryptophan/tyrosine fluoresces, and at λ^ex = 560 nm where excitation of the rhodamine moiety is possible (Figure 5 and Figure 6). […] With both amino acids present in the indicated complex mixture, the fluorescence in the 300–400 nm range is more likely to originate from the indole group of the tryptophan residue, which is known to emit at ~350 nm at an excitation wavelength of 280 nm. Moreover, spectra were recorded at different pHs of the medium to determine the study compounds’ acid constants and isoelectric points. All compounds show similar behavior of fluorescence properties with minimal difference in wavelength where the compound absorbs in the visible region (1–2 nm). A strong decrease in the intensity of the emission maximum at λ^em = 585 nm is observed with an increase in the pH of the medium, which is due to the structural changes associated with the closure of the spirolactam ring at rhodamine. pH also affects the fluorescence emission intensity of the tryptophan/tyrosine spectral line. […] The obtained emission spectra at different pHs helped us to determine the acidity constants of the obtained compounds. pK values were obtained by selecting the inflection points of the I/pH curve at two wavelengths: 275 nm, where tryptophan emits, and 575 nm for the rhodamine part, respectively (Figure 5 and Figure 6, inserted graphs). At these points the concentrations of conjugated acid and base are equal, i.e., [HRh-S] = [Rh-S-], and according to the known relationship […] at this point pKa = рН. Equations (1) and (2) given in the experimental part were also used to calculate the acid constants to confirm the values. […] The proven higher values of the constants given in [24] are due to the influence of the –OH group of tyrosine, located near the spirolactam ring of rhodamine and leading to its more effortless opening. […] Based on the obtained values of the protolytic constants, the isoelectric points were calculated where the compounds would show zero charge and reduced solubility (Table 1). […] Stokes shift, showing the differences between the structure of the fluorophore in the ground S0 state and in the first excited state S1, was also determined as an essential feature for the rhodamine peptide derivatives (Figure 5, Table 2). The Stokes shift for all compounds at the rhodamine moiety is ~859 cm^−1, which is consistent with the rhodamine derivatives known in the literature.
Acid base constants and isoelectric points were determined fluorimetrically and confirmed by UV–Vis analyses. Absorption and emission spectra were recorded on a series of solutions with the same concentration of the peptide derivatives at different pHs (from 1 to 12). The assay data (intensity/absorbance versus pH) were processed with Origin8Pro mathematical software. The pK value were determined using the following equations:log [(Amax − A)/(A − Amin)] = pH − pKa(1) log [(IF max − IF)/(IF − IF min)] = pH – pKa(2) where the minimum (Amin) and the maximum (Amax) absorbances are at 275 nm and 557 nm, respectively, A is the absorbance at the given pH value; Fmax and Fmin are the maximum and minimum fluorescence emission intensity at 356 and 585 nm, respectively, F is the fluorescence intensity at the given pH value.

SMILES | logD [1] | pKa2 [2] | pKa1 [2] | pI [2]
CCN(CC)c1ccc2c(c1)Oc1cc(N(CC)CC)ccc1C2c1ccccc1C(=O)N[C@@H](CC(C)C)C(=O)N[C@H](C(=O)N[C@H](C(=O)N[C@@H](Cc1ccc(O)cc1)C(=O)NC1(C(=O)N[C@@H](Cc2c[nH]c3ccccc23)C(=O)N[C@H](C(N)=O)[C@@H](C)O)CCCC1)C(C)C)C(C)C [Rh-S5, rhodamineB-Leu-Val-Val-Tyr-Ac5c-Trp-Thr-NH2] (X1-LVVY[Ac5c]WT-NH2) | -0.168 | 5.36 | 5.11 | 5.23
CCN(CC)c1ccc2c(c1)Oc1cc(N(CC)CC)ccc1C2c1ccccc1C(=O)N[C@@H](CC(C)C)C(=O)N[C@H](C(=O)N[C@H](C(=O)N[C@@H](Cc1ccc(O)cc1)C(=O)NC1(C(=O)N[C@@H](Cc2c[nH]c3ccccc23)C(=O)N[C@H](C(N)=O)[C@@H](C)O)CCCCC1)C(C)C)C(C)C [Rh-S6, rhodamineB-Leu-Val-Val-Tyr-Ac6c-Trp-Thr-NH2] (X1-LVVY[Ac6c]WT-NH2) | -0.197 | 4.94 | 6.35 | 5.65
CCN(CC)c1ccc2c(c1)Oc1cc(N(CC)CC)ccc1C2c1ccccc1C(=O)N[C@@H](CC(C)C)C(=O)N[C@H](C(=O)N[C@H](C(=O)N[C@@H](Cc1ccc(O)cc1)C(=O)N1CCC[C@H]1C(=O)N[C@@H](Cc1c[nH]c2ccccc12)C(=O)N[C@H](C(N)=O)[C@@H](C)O)C(C)C)C(C)C [Rh-S, rhodamineB-Leu-Val-Val-Tyr-Pro-Trp-Thr-NH2] (X1-LVVYPWT-NH2) | 0.54 | 4.56 | 7.09 | 5.82
